{
  "source": "patent US8012944B2",
  "about": "“Method for treating cancer using IAP antisense oligomer and chemotherapeutic agent” (Pharmascience Inc., priority 2003, dated 2011)",
  "key": {"[1]": {"test_system": "XIAP mRNA", "assay": "XIAP mRNA knock-down in H460 cells (real-time RT-PCR / TaqMan)", "format": "cell-based, human", "conditions": "real-time PCR, 1.2 μM, 6 hours of transfection (FIG. 6)", "procedure,_shortened": "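NCI-H460 cells transfected with phosphorothioate antisense oligonucleotides via Lipofectamine 2000; RNA isolated after 6 h treatment. XIAP mRNA quantified by one-step TaqMan real-time RT-PCR, comparative Ct (threshold 30× baseline SD), normalized to GAPDH and expressed relative to untreated control cells.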"}, "[2]": {"test_system": "H460 cells", "assay": "Apoptotic flow cytometric assay (PI staining, hypo-diploid DNA content)", "format": "cell-based, human", "conditions": "1.2 μM, untreated control 16.6%", "description": "Cells were treated with liposome-oligonucleotide complexes for 4.5 h, and incubated for another 48 h in the medium without transfection reagent at 37° C. Following incubation, cells were harvested, washed twice with sample buffer (0.5% glucose in PBS without Ca^++ and Mg^++), and fixed in cold 70% ethanol at 4° C. for at least 18 hrs. Samples were centrifuged at 3000 rpm for 10 min, then resuspended in sample buffer containing 50 μg/ml propidium iodide (PI) and 400 U/ml RNase A. Samples were incubated for 30 min at room temperature and 30 min on ice, followed by flow cytometry analysis. EXPO Software (Applied Cytometry Systems, Sacramento, Calif.) was used to generate histograms, which were used to determine the cell cycle phase distribution after debris exclusion. The Sub G1/G0 cell fraction was considered as representative for apoptotic cells."}, "[3]": {"test_system": "H460 tumors", "assay": "Histopathology and ubiquitin immunohistochemistry of H460 tumors", "format": "in vivo, SCID-RAG2 mice", "conditions": "15 mg/kg; day 21 or 24", "description": "To evaluate whether XIAP AS oligonucleotide administration results in direct tumor cell kill, we examined the histology of tumors after treatment both for morphology and ubiquitin immunostaining (FIGS. 19A and 19B). At day 21 or 24 post-tumor inoculation, tumors treated with 15 mg/kg of G4 AS oligonucleotides, SC oligonucleotides, or saline control were excised, sectioned, and stained with hematoxylin and eosin.\nThe degradation of proteins is largely ubiquitin-proteasome-dependent; increased ubiquitin expression has been observed during apoptosis. Thus, we examined the ubiquitin expression in the tumors sections used for hematoxylin and eosin staining.\nMouse tumors were collected on day 21 or 24 post-tumor inoculation and treatment. One portion of the tumor tissue was fixed in formalin. Paraffin-embedded tissues were sectioned and subjected to gross histopathology using hematoxylin and eosin staining and immunohistochemistry for ubiquitin expression. The other portion of the tumor was homogenized in lysis buffer for western blot analysis (see above)."}},
  "data": [
    {"sequence": "GCTGAGTCTCCATATTGCC [G4 AS] (chemistry not given here)", "values": [
      {"measurement": "reduction of XIAP mRNA level compared to untreated control", "setting": "[1]", "result": 55, "unit": "%"},
      {"measurement": "hypo-diploid DNA content of cells", "setting": "[2]", "result": 40.8, "unit": "%"},
      {"measurement": "tumor histology (hematoxylin and eosin)", "setting": "[3]", "result": "increased number of dead cells"}
    ]}
  ]
}
